# Data from paper PMC11722285, “Exploring the Potential of Malvidin and Echiodinin as Probable Antileishmanial Agents Through In Silico Analysis and In Vitro Efficacy” (Molecules, 2025).
# Read-outs that look alike come from different tables or passages of the source.
# Experiments:
# Type in all cases: cell-based
# [1] = test system: L. amazonensis stationary promastigotes; assay: In vitro antileishmanial activity, stationary promastigotes (MTT); details: for IC50: Leishmania amazonensis, 48 h, read-out: IC50 (µM) Stationary Promastigotes L. amazonensis; for Selectivity Index (SI) Stationary Promastigotes L. amazonensis: ratio between CC50 (macrophages) and IC50
# Procedure: (§1) L. amazonensis (IFLA/BR/1967/PH-8), L. braziliensis (MHOM/BR/1975/M2903), and L. infantum (MHOM/BR/1970/BH46) were used as parasites. Stationary promastigotes were grown at a 24 °C in complete Schneider’s medium (Sigma-Aldrich, St. Louis, MO, USA), which was composed of medium plus 20% (v/v) heat-inactivated fetal bovine serum (FBS; Sigma-Aldrich, USA) and 20 mM L-glutamine with a pH of 7.4 [139]. To obtain the axenic amastigotes, 10^9 stationary promastigotes were washed three times in sterile phosphate-buffered saline (PBS 1X and incubated in 5 mL FBS for 48 h (L. amazonensis and L. braziliensis) and 72 h (L. infantum), respectively, at 37 °C. Parasites were washed in cold PBS 1x, and their morphology was evaluated after staining using the Giemsa method in an optical microscope, as previously described.
# (§2) AmpB (0 to 10.8 µM; Sigma-Aldrich, USA) was used as control. Cell viability was assessed through 3-(4.5-dimethylthiazol-2-yl)-2.5-diphenyl tetrazolium bromide (Sigma-Aldrich, USA) method. Optical density (OD) values were measured in a microplate spectrophotometer (Molecular Devices, Spectra Max Plus, San Jose, CA, USA) at 570 nm. IC50 values were calculated by sigmoidal regression of dose–response curves in Microsoft Excel software (version 10.0). Two-tailed Student’s t-tests (p < 0.05) were used to compare IC50 values between malvidin and echioidinin, assessing significant differences in inhibitory activity.
# [2] = test system: L. braziliensis stationary promastigotes; assay: as above; details: for IC50: Leishmania braziliensis, 48 h, read-out: IC50 (µM) Stationary Promastigotes L. braziliensis; for Selectivity Index (SI) Stationary Promastigotes L. braziliensis: ratio between CC50 (macrophages) and IC50
# Procedure: as §1, §2
# [3] = test system: L. infantum stationary promastigotes; assay: as above; details: for IC50: Leishmania infantum, 48 h, read-out: IC50 (µM) Stationary Promastigotes L. infantum; for Selectivity Index (SI) Stationary Promastigotes L. infantum: ratio between CC50 (macrophages) and IC50
# Procedure: as §1, §2
# [4] = test system: L. amazonensis axenic amastigotes; assay: In vitro antileishmanial activity, axenic amastigotes (MTT); details: for IC50: Leishmania amazonensis, 48 h, read-out: IC50 (µM) Axenic amastigotes L. amazonensis; for Selectivity Index (SI) Axenic amastigotes L. amazonensis: ratio between CC50 (macrophages) and IC50
# Procedure: as §1, §2
# [5] = test system: L. braziliensis axenic amastigotes; assay: as above; details: for IC50: Leishmania braziliensis, 48 h, read-out: IC50 (µM) Axenic amastigotes L. braziliensis; for Selectivity Index (SI) Axenic amastigotes L. braziliensis: ratio between CC50 (macrophages) and IC50
# Procedure: as §1, §2
# [6] = test system: L. infantum axenic amastigotes; assay: as above; details: for IC50: Leishmania infantum, 48 h, read-out: IC50 (µM) Axenic amastigotes L. infantum; for Selectivity Index (SI) Axenic amastigotes L. infantum: ratio between CC50 (macrophages) and IC50
# Procedure: as §1, §2
# [7] = Cytotoxicity assay in macrophages (MTT); details: mouse, murine macrophages, mean ± SD
# Procedure: Cytotoxicity was evaluated ex vivo in murine macrophages and human red blood cells, for which concentrations inhibiting 50% of macrophages (CC50) and red blood cells (RBC50) were determined. […] Cells were incubated in RPMI 1640 medium for 48 h (murine macrophages) or 1 h (red blood cells) at 37 °C in 5% CO2. Macrophage viability was assessed using the MTT method. The red blood cell suspension was centrifuged at 1000× g for 10 min at 4 °C, after which the percentage of cell lysis was evaluated spectrophotometrically at 570 nm. The hemolysis was determined by replacing the natural products with an equal volume of phosphate-buffered saline with a pH of 7.4 (PBS—negative control) or distilled water (positive control). CC50 and RBC50 values were calculated by sigmoidal regression of dose–response curves in Microsoft Excel software (version 10.0). SI was calculated as the ratio between CC50 and IC50 values.
# [8] = test system: O+ human red blood cells; assay: Hemolytic activity; details: lysis of 50% of O+ human red blood cells; 1 h; mean ± SD
# Procedure: Cytotoxicity was evaluated ex vivo in murine macrophages and human red blood cells, for which concentrations inhibiting 50% of macrophages (CC50) and red blood cells (RBC50) were determined. Briefly, murine cells (5 × 10^5) or a 5% human red blood cells suspension were incubated in the presence of malvidin (0 to 301.84 µM) or echioidinin (0 to 356.76 µM) AmpB (0 to 10.82 µM) was used as control. Cells were incubated in RPMI 1640 medium for 48 h (murine macrophages) or 1 h (red blood cells) at 37 °C in 5% CO2. Macrophage viability was assessed using the MTT method. The red blood cell suspension was centrifuged at 1000× g for 10 min at 4 °C, after which the percentage of cell lysis was evaluated spectrophotometrically at 570 nm. The hemolysis was determined by replacing the natural products with an equal volume of phosphate-buffered saline with a pH of 7.4 (PBS—negative control) or distilled water (positive control). CC50 and RBC50 values were calculated by sigmoidal regression of dose–response curves in Microsoft Excel software (version 10.0). SI was calculated as the ratio between CC50 and IC50 values.
# [9] = test system: L. amazonensis-infected murine macrophages; assay: Treatment of infected macrophages; details: 48 h
# Procedure: (§3) To evaluate the efficacy of malvidin or echioidinin for treating infected macrophages, murine cells (5 × 10^5) were plated on round glass coverslips in 24-well plates in RPMI 1640 medium supplemented with 20% (v/v) FBS and 20 mM L-glutamine at a pH of 7.4 and incubated for 24 h at 37 °C in 5% CO2. Stationary promastigotes were added to the wells at a ratio of 10 parasites per macrophage, and cultures were incubated further for 48 h at 37 °C for 5% CO2. Free parasites were removed by extensive washing with RPMI 1640 medium, and infected macrophages were treated with malvidin (30.18, 60.37, and 120.74 µM), echioidinin (35.18, 70.36, and 140.72 µM), or AmpB (2.70 and 5.41 µM) for 48 h at […] in 5% CO2. After fixation with 4% paraformaldehyde, cells were washed and stained with Giemsa, and the infection percentage, the number of amastigotes per infected macrophage, and the reduction in the infection percentage were determined by counting 200 cells in triplicate, using an optical microscope.
# [10] = test system: L. braziliensis-infected murine macrophages; assay: Treatment of infected macrophages; details: 48 h
# Procedure: as §3
# [11] = test system: L. infantum-infected murine macrophages; assay: Treatment of infected macrophages; details: 48 h
# Procedure: as §3
# [12] = stationary promastigotes, mean ± SD
structure (smiles),measurement,setting,value
"COc1cc(O)c2c(=O)cc(-c3ccccc3O)oc2c1 [Echioidinin, echioidinin]",IC50,[1]; [12],273 ± 29 µM
same,Selectivity Index (SI) Stationary Promastigotes L. amazonensis,[1],10.80
same,IC50,[2]; [12],251 ± 22 µM
same,Selectivity Index (SI) Stationary Promastigotes L. braziliensis,[2],12.10
same,IC50,[3]; [12],213 ± 16 µM
same,Selectivity Index (SI) Stationary Promastigotes L. infantum,[3],14.00
same,IC50,"[4]; axenic amastigotes, mean ± SD",336 ± 19 µM
same,Selectivity Index (SI) Axenic amastigotes L. amazonensis,[4],8.90
same,IC50,"[5]; axenic amastigotes, mean ± SD",293 ± 20 µM
same,Selectivity Index (SI) Axenic amastigotes L. braziliensis,[5],10.30
same,IC50,"[6]; axenic amastigotes, mean ± SD",262 ± 17 µM
same,Selectivity Index (SI) Axenic amastigotes L. infantum,[6],11.60
same,CC50 at 48 h,[7],3010 ± 114 µM
same,RBC50,[8],3400.76 ± 78 µM
same,Infection After Treatment (%),[9]; 35.18 µM,80.20%
same,Infectiveness Reduction (%),[9]; 35.18 µM,13.11%
same,Number of Amastigotes per Macrophage,[9]; 35.18 µM,5.40
same,Infection After Treatment (%),[9]; 70.36 µM,71.80%
same,Infectiveness Reduction (%),[9]; 70.36 µM,22.21%
same,Number of Amastigotes per Macrophage,[9]; 70.36 µM,3.70
same,Infection After Treatment (%),[9]; 140.72 µM,63.40%
same,Infectiveness Reduction (%),[9]; 140.72 µM,31.31%
same,Number of Amastigotes per Macrophage,[9]; 140.72 µM,6.30
same,Infection After Treatment (%),[10]; 35.18 µM,56.50%
same,Infectiveness Reduction (%),[10]; 35.18 µM,17.76%
same,Number of Amastigotes per Macrophage,[10]; 35.18 µM,6.40
same,Infection After Treatment (%),[10]; 70.36 µM,50.80%
same,Infectiveness Reduction (%),[10]; 70.36 µM,26.06%
same,Number of Amastigotes per Macrophage,[10]; 70.36 µM,3.70
same,Infection After Treatment (%),[10]; 140.72 µM,43.20%
same,Infectiveness Reduction (%),[10]; 140.72 µM,37.12%
same,Number of Amastigotes per Macrophage,[10]; 140.72 µM,3.70
same,Infection After Treatment (%),[11]; 35.18 µM,65.50%
same,Infectiveness Reduction (%),[11]; 35.18 µM,12.08%
same,Number of Amastigotes per Macrophage,[11]; 35.18 µM,4.80
same,Infection After Treatment (%),[11]; 70.36 µM,58.70%
same,Infectiveness Reduction (%),[11]; 70.36 µM,21.21%
same,Number of Amastigotes per Macrophage,[11]; 70.36 µM,2.80
same,Infection After Treatment (%),[11]; 140.72 µM,50.70%
same,Infectiveness Reduction (%),[11]; 140.72 µM,31.95%
same,Number of Amastigotes per Macrophage,[11]; 140.72 µM,4.20
"COc1cc(-c2[o+]c3cc(O)cc(O)c3cc2O)cc(OC)c1O [Malvidin, malvidin]",IC50,[1],198 ± 17 µM
same,Selectivity Index (SI) Stationary Promastigotes L. amazonensis,[1],14.70
same,IC50,[2],164 ± 19 µM
same,Selectivity Index (SI) Stationary Promastigotes L. braziliensis,[2],17.60
same,IC50,[3],141 ± 26 µM
same,Selectivity Index (SI) Stationary Promastigotes L. infantum,[3],20.70
same,IC50,[4],258 ± 17 µM
same,Selectivity Index (SI) Axenic amastigotes L. amazonensis,[4],11.30
same,IC50,[5],227.9 ± 1 µM
same,Selectivity Index (SI) Axenic amastigotes L. braziliensis,[5],12.70
same,IC50,[6],174 ± 19 µM
same,Selectivity Index (SI) Axenic amastigotes L. infantum,[6],16.70
same,Selectivity Index (SI) Axenic amastigotes L. infantum,[6]; listed as malvidin,14.70
same,CC50 at 48 h,[7],2920 ± 80 µM
same,RBC50,[8],3120.13 ± 107 µM
same,Infection After Treatment (%),[9]; 30.18 µM,75.60%
same,Infectiveness Reduction (%),[9]; 30.18 µM,18.09%
same,Number of Amastigotes per Macrophage,[9]; 30.18 µM,3.30
same,Infection After Treatment (%),[9]; 60.37 µM,61.10%
same,Infectiveness Reduction (%),[9]; 60.37 µM,33.80%
same,Number of Amastigotes per Macrophage,[9]; 60.37 µM,2.80
same,Infection After Treatment (%),[9]; 120.74 µM,59.30%
same,Infectiveness Reduction (%),[9]; 120.74 µM,35.75%
same,Number of Amastigotes per Macrophage,[9]; 120.74 µM,3.80
same,Infection After Treatment (%),[10]; 30.18 µM,52.10%
same,Infectiveness Reduction (%),[10]; 30.18 µM,24.16%
same,Number of Amastigotes per Macrophage,[10]; 30.18 µM,4.40
same,Infection After Treatment (%),[10]; 60.37 µM,48.70%
same,Infectiveness Reduction (%),[10]; 60.37 µM,29.11%
same,Number of Amastigotes per Macrophage,[10]; 60.37 µM,5.40
same,Infection After Treatment (%),[10]; 120.74 µM,39.80%
same,Infectiveness Reduction (%),[10]; 120.74 µM,42.07%
same,Number of Amastigotes per Macrophage,[10]; 120.74 µM,3.30
same,Infection After Treatment (%),[11]; 30.18 µM,61.20%
same,Infectiveness Reduction (%),[11]; 30.18 µM,17.85%
same,Number of Amastigotes per Macrophage,[11]; 30.18 µM,4.70
same,Infection After Treatment (%),[11]; 60.37 µM,55.60%
same,Infectiveness Reduction (%),[11]; 60.37 µM,25.37%
same,Number of Amastigotes per Macrophage,[11]; 60.37 µM,3.70
same,Infection After Treatment (%),[11]; 120.74 µM,49.80%
same,Infectiveness Reduction (%),[11]; 120.74 µM,33.15%
same,Number of Amastigotes per Macrophage,[11]; 120.74 µM,2.70
